# Where “and” joins values, the source holds several entries; their conditions need not be identical. Identical values can stand only once.
# Assay: Ability to inhibit [3H](+)-pentazocine binding to guinea pig brain Sigma receptor type 1
row,SMILES,Ki
1,CN1CCC2(c3cccc(O)c3)CC(=O)C(=Cc3ccc4ccccc4c3)C1C2 (stereo not given) [5-(3-Hydroxy-phenyl)-2-methyl-8-[1-naphthalen-2-yl-meth-(E)-ylidene]-2-aza-bicyclo[3.3.1]nonan-7-one],16.6 nM
2,COc1ccc(C=C2C(=O)CC3(c4cccc(O)c4)CCN(C)C2C3)cc1 (stereo not given) [5-(3-Hydroxy-phenyl)-8-[1-(4-methoxy-phenyl)-meth-(E)-ylidene]-2-methyl-2-aza-bicyclo[3.3.1]nonan-7-one],1.9 nM and 7.8 nM
3,CN1CCC2(c3cccc(O)c3)CC(=O)C(=Cc3cccc(I)c3)C1C2 (stereo not given) [5-(3-Hydroxy-phenyl)-8-[1-(3-iodo-phenyl)-meth-(E)-ylidene]-2-methyl-2-aza-bicyclo[3.3.1]nonan-7-one],1.62 nM
4,CN1CCC2(c3cccc(O)c3)CC(=O)C(=CC3CC3)C1C2 (stereo not given) [8-[1-Cyclopropyl-meth-(E)-ylidene]-5-(3-hydroxy-phenyl)-2-methyl-2-aza-bicyclo[3.3.1]nonan-7-one],62.3 nM
5,CN1CCC2(c3cccc(O)c3)CC(=O)C(=Cc3ccc(I)cc3)C1C2 (stereo not given) [5-(3-Hydroxy-phenyl)-8-[1-(4-iodo-phenyl)-meth-(E)-ylidene]-2-methyl-2-aza-bicyclo[3.3.1]nonan-7-one],1.71 nM

# From BindingDB's records for doi:10.1021/jm00024a005 (National Institute of Diabetes and Digestive and Kidney …, 1996)
